Measured values taken from patent US8802597B2, “Herbicidal pyrimidines” (E I du Pont de Nemours and Company, priority 2003, dated 2014).
Where two headings read alike, the source gives them in different places.

Assays:
Test in all cases: Test C pre/postemergence
Type in all cases: in vivo
[1] = test system: woolly cupgrass (Eriochloa villosa); details: Eriochloa villosa; for pest or weed control at 8 g/ha: 8 g ai/ha; for pest or weed control at 16 g/ha: 16 g ai/ha; for pest or weed control at 31 g/ha: 31 g ai/ha; for pest or weed control at 62 g/ha: 62 g ai/ha
Outline: (§1)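 Greenhouse herbicide screen, visual readout. Compound in solvent/surfactant applied preemergence at planting or postemergence to 1- to 4-leaf plants; assessed at 12–14 days on a 0–100 control scale.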

soybean (Glycine max) = details: Glycine max; for plant injury at 8 g/ha: 8 g ai/ha; for plant injury at 16 g/ha: 16 g ai/ha; for plant injury at 31 g/ha: 31 g ai/ha; for plant injury at 62 g/ha: 62 g ai/ha
Outline: as §1

[2] = test system: bermudagrass (Cynodon dactylon); details: Cynodon dactylon; for pest or weed control at 8 g/ha: 8 g ai/ha; for pest or weed control at 16 g/ha: 16 g ai/ha; for pest or weed control at 31 g/ha: 31 g ai/ha; for pest or weed control at 62 g/ha: 62 g ai/ha
Outline: as §1

[3] = test system: eastern black nightshade (Solanum ptycanthum); details: Solanum, pre-emergence, Preemergence, read-out: Plant response rating, Nightshade
Outline: as §1

[4] = test system: yellow nutsedge (Cyperus esculentus); details: Cyperus; for pest or weed control at 8 g/ha: 8 g ai/ha; for pest or weed control at 16 g/ha: 16 g ai/ha; for pest or weed control at 31 g/ha: 31 g ai/ha; for pest or weed control at 62 g/ha: 62 g ai/ha
Outline: as §1

[5] = test system: Surinam grass (Brachiaria decumbens); details: Urochloa decumbens; for pest or weed control at 8 g/ha: 8 g ai/ha; for pest or weed control at 16 g/ha: 16 g ai/ha; for pest or weed control at 31 g/ha: 31 g ai/ha; for pest or weed control at 62 g/ha: 62 g ai/ha
Outline: as §1

[6] = test system: velvetleaf (Abutilon theophrasti); details: Abutilon theophrasti, post-emergence, Postemergence, 8 g ai/ha; scale 0 to 100; read-out: Plant response rating, Velvetleaf
Outline: as §1

[7] = post-emergence, Postemergence, read-out: Plant response rating (scale of 0 to 100), Cupgrass, Woolly
[8] = pre-emergence, Preemergence, scale 0 to 100, 0 no effect, 100 complete control, read-out: Plant response rating, Cupgrass, Woolly
[9] = post-emergence, Postemergence, read-out: Plant response rating (scale of 0 to 100), Soybean
[10] = pre-emergence, Preemergence, scale 0 to 100, 0 no effect, 100 complete control, read-out: Plant response rating, Soybean
[11] = post-emergence, Postemergence, read-out: Plant response rating (scale of 0 to 100), Bermudagrass
[12] = pre-emergence, Preemergence, scale 0 to 100, 0 no effect, 100 complete control, read-out: Plant response rating, Bermudagrass
[13] = post-emergence, Postemergence, read-out: Plant response rating (scale of 0 to 100), Nutsedge, Yellow
[14] = pre-emergence, Preemergence, scale 0 to 100, 0 no effect, 100 complete control, read-out: Plant response rating, Nutsedge, Yellow
[15] = post-emergence, Postemergence, read-out: Plant response rating (scale of 0 to 100), Surinam Grass
[16] = pre-emergence, Preemergence, scale 0 to 100, 0 no effect, 100 complete control, read-out: Plant response rating, Surinam Grass

`Nc1nc(-c2ccc(Br)cc2)nc(C(=O)O)c1Cl` [Compound 95, 6-amino-2-(4-bromophenyl)-5-chloro-4-pyrimidinecarboxylic acid] gave a pest or weed control at 8 g/ha ([1]; post-emergence, Postemergence, scale 0 to 100, read-out: Plant response rating, Cupgrass, Woolly) of 75%, a pest or weed control at 16 g/ha [1, 7] of 75% and a pest or weed control at 31 g/ha [1, 7] of 75%. It also gave a pest or weed control at 62 g/ha [1, 7] of 80%, a pest or weed control at 8 g/ha ([1]; pre-emergence, Preemergence, scale 0 to 100 (0 no effect, 100 complete control), read-out: Plant response rating, Cupgrass, Woolly) of 0% and a pest or weed control at 16 g/ha [1, 8] of 0%. The pest or weed control at 31 g/ha [1, 8] was 0%, the pest or weed control at 62 g/ha [1, 8] was 5% and the plant injury at 8 g/ha (soybean (Glycine max); post-emergence, Postemergence, scale 0 to 100, read-out: Plant response rating, Soybean) was 100%. The plant injury at 16 g/ha (soybean (Glycine max); [9]) was 100%, the plant injury at 31 g/ha (soybean (Glycine max); [9]) was 100% and the plant injury at 62 g/ha (soybean (Glycine max); [9]) was 100%. The plant injury at 8 g/ha (soybean (Glycine max); pre-emergence, Preemergence, scale 0 to 100 (0 no effect, 100 complete control), read-out: Plant response rating, Soybean) was 90%, the plant injury at 16 g/ha (soybean (Glycine max); [10]) was 90% and the plant injury at 31 g/ha (soybean (Glycine max); [10]) was 100%. It also gave a plant injury at 62 g/ha (soybean (Glycine max); [10]) of 100%, a pest or weed control at 8 g/ha ([2]; post-emergence, Postemergence, scale 0 to 100 (0 no effect, 100 complete control), read-out: Plant response rating, Bermudagrass) of 70% and a pest or weed control at 16 g/ha [2, 11] of 70%. For the same compound, the pest or weed control at 31 g/ha [2, 11] was 85%, the pest or weed control at 62 g/ha ([2]; post-emergence, Postemergence, scale 0 to 100 (0 no effect, 100 complete control), read-out: Bermudagrass plant response rating) was 85% and the pest or weed control at 8 g/ha ([2]; pre-emergence, Preemergence, scale 0 to 100 (0 no effect, 100 complete control), read-out: Plant response rating, Bermudagrass) was 0%. It also gave a pest or weed control at 16 g/ha [2, 12] of 0%, a pest or weed control at 31 g/ha [2, 12] of 0% and a pest or weed control at 62 g/ha [2, 12] of 55%. It also gave a pest or weed control at 8 g/ha ([3]; 8 g ai/ha, scale 0 to 100 (0 no effect, 100 complete control)) of 0%, a pest or weed control at 16 g/ha ([3]; 16 g ai/ha, scale 0 to 100, 0 no effect, 100 complete control) of 0% and a pest or weed control at 31 g/ha ([3]; 31 g ai/ha, scale 0 to 100, 0 no effect, 100 complete control) of 60%. The pest or weed control at 62 g/ha ([3]; 62 g ai/ha, scale 0 to 100, 0 no effect, 100 complete control) was 75%, the pest or weed control at 8 g/ha ([4]; post-emergence, Postemergence, scale 0 to 100, read-out: Plant response rating, Nutsedge, Yellow) was 55% and the pest or weed control at 16 g/ha [4, 13] was 60%. For the same compound, the pest or weed control at 31 g/ha [4, 13] was 60%, the pest or weed control at 62 g/ha [4, 13] was 75% and the pest or weed control at 8 g/ha ([4]; pre-emergence, Preemergence, scale 0 to 100 (0 no effect, 100 complete control), read-out: Plant response rating, Nutsedge, Yellow) was 0%. For the same compound, the pest or weed control at 16 g/ha [4, 14] was 40%, the pest or weed control at 31 g/ha [4, 14] was 60% and the pest or weed control at 62 g/ha [4, 14] was 60%. It also gave a pest or weed control at 8 g/ha ([5]; post-emergence, Postemergence, scale 0 to 100, read-out: Plant response rating, Surinam Grass) of 55%, a pest or weed control at 16 g/ha [5, 15] of 65% and a pest or weed control at 31 g/ha [5, 15] of 70%. The pest or weed control at 62 g/ha [5, 15] was 75%, the pest or weed control at 8 g/ha ([5]; pre-emergence, Preemergence, scale 0 to 100 (0 no effect, 100 complete control), read-out: Plant response rating, Surinam Grass) was 0% and the pest or weed control at 16 g/ha [5, 16] was 0%. It also gave a pest or weed control at 31 g/ha [5, 16] of 5%, a pest or weed control at 62 g/ha [5, 16] of 10% and a pest or weed control at 8 g/ha [6] of 95%.
